Each structure is given as a SMILES string. Read-outs that look alike come from different tables or passages of the source. Some results are limits rather than exact numbers.

As a reminder, the viability is a per cent measure of how many cells are alive, often set against a control. Lower therefore signals a greater loss of cells.

One data set deals with hepG2 cells. Kind of data set: CCK8 cell viability assay, hepG2. It counts as cell-based, human. As to the method:
(§1) This study aimed to assess the anti-proliferative activity of dolutegravir-1,2,3-triazole derivatives on hepatocellular carcinoma cell lines, Huh7 and hepG2. A comprehensive CCK8 assay was employed to evaluate the impact of these compounds on cell viability, with cells treated at a concentration of 20 μM for 48 h. HRM cells, a normal cell line, were included as a control for comparative analysis.
(§2) Human hepatocellular carcinoma cell lines Huh7 and hepG2 were obtained from ATCC (Manassas, VA, USA). Cells were cultured in DMEM or RPMI 1640 medium containing 10% FBS and 1% penicillin/streptomycin at 37 °C with a 5% CO2-humidified atmosphere.
(§3) CCK8 assay was used to measure cell viability. Cells with a density of 1 × 10^4 cells/well were seeded on 96-well plates. After adhesion, cells were treated with different diluted compounds or vehicle control DMSO and continued to be cultured for 48 h or 72 h, respectively. Then, CCK8 reagent was added for one hour incubation at 37 °C with 5% CO2. Absorbance was measured using a Microplate spectrophotometer (Thermo, Waltham, MA, USA) at 450 nm. The ratio of cell viability of control was taken as 100%. […] Then, IC50 of compounds were investigated using the prism statistical software 7.0.
Background: Tetrazolium assays rely on reduction of a dye to a coloured formazan, in cell work by metabolically active cells.

A further data set deals with Huh7 cells. Kind of data set: CCK8 cell viability assay, Huh7. It counts as cell-based, human. As to conditions: for IC50: Huh7, CCK8, read-out: half maximal inhibitory concentration (IC50), Huh7. Here is the method:
as §1, §2, §3

A further data set can be described thus: in vitro. It counts as cell-based, human. Conditions: human. Here is the method: (§4) This study aimed to assess the anti-proliferative activity of dolutegravir-1,2,3-triazole derivatives on hepatocellular carcinoma cell lines, Huh7 and hepG2. A comprehensive CCK8 assay was employed to evaluate the impact of these compounds on cell viability, with cells treated at a concentration of 20 μM for 48 h. HRM cells, a normal cell line, were included as a control for comparative analysis. […]
as §3

For data set [1] the following is noted: dose 27 times greater than the clinical dose, preclinical study; cited from earlier work.
In data set [2] the test system is HRM cells (human renal mesangial cells). Kind of data set: in vitro. It counts as cell-based. Conditions: 20 µM. Here is the method:
as §4, §3

Where [3] appears, read: 20 μM, hepG2, CCK8, control taken as 100%.
Where [4] appears, read: 20 μM, Huh7, CCK8, control taken as 100%.
Setting [5] is: 48 h, hepG2, CCK8, read-out: half maximal inhibitory concentration (IC50), hepG2.

`C[C@@H]1CCO[C@H]2Cn3cc(C(=O)NCc4ccc(F)cc4F)c(=O)c(O)c3C(=O)N12` [DTG, Dolutegravir]: the IC50 is greater than 50 µM with hepG2 cells (Homo sapiens, HepG2, 48 h, hepG2, CCK8, read-out: half maximal inhibitory concentration (IC50), hepG2) and greater than 50 µM with Huh7 cells (Homo sapiens, Huh-7, 48 h). Further, the viability at 20 µM in the data set with hepG2 cells (Homo sapiens, 20 μM, 48 h, hepG2, CCK8, control taken as 100%) came to 82.6%; with Huh7 cells (Homo sapiens, Huh-7, 20 μM, 48 h, Huh7, CCK8, control taken as 100%), 96.9%. The same compound had a viability at 48 h, 20 µM in the data set “in vitro” of 99.6%. In addition, in data set [1], the “fertility and teratogenic toxicity” value is reported as “no obvious fertility toxicity or teratogenic toxicity”.
Take `COc1c2n(cc(C(=O)Nc3cccc(-c4cn(Cc5ccccc5F)nn4)c3)c1=O)CC1OCCC(C)N1C2=O` (stereo not shown) [Compound 6f]: in the data set on hepG2 cells (setting [3]), the “Cell Viability (100%), 20 μM, 48 h, hepG2” value is 63.23%. The “Cell Viability (100%), 20 μM, 48 h, Huh7” value with Huh7 cells (setting [4]) is 54.58%. In addition, the “Cell Viability (100%), 20 μM, 48 h, HRM” value in data set [2] is given as 102.19%.
For `COc1c2n(cc(C(=O)Nc3cccc(-c4cn(-c5ccccc5C(F)(F)F)nn4)c3)c1=O)CC1OCCC(C)N1C2=O` (stereo not shown) [Compound 5c], in the data set on hepG2 cells (setting [3]), the “Cell Viability (100%), 20 μM, 48 h, hepG2” value amounted to 54.14%. For the same compound, the IC50 in the data set with hepG2 cells (setting [5]) is 18.3 ± 1.14 µM; in the data set with Huh7 cells (48 h), 18.7 ± 0.53 µM. For the same compound, the “Cell Viability (100%), 20 μM, 48 h, Huh7” value in the data set on Huh7 cells (setting [4]) turned out to be 36.28%. The “Cell Viability (100%), 20 μM, 48 h, HRM” value in data set [2] is 2.65%.
The corresponding values for `COc1ccccc1-n1cc(-c2cccc(NC(=O)c3cn4c(c(OC)c3=O)C(=O)N3C(C)CCOC3C4)c2)nn1` (stereo not shown) [Compound 5t] are 41.93%, 11.2 ± 0.32 µM, 10.8 ± 0.85 µM, 29.33% and 73.24%.
Turning to `COc1c2n(cc(C(=O)Nc3cccc(-c4cn(Cc5ccccc5C(F)(F)F)nn4)c3)c1=O)CC1OCCC(C)N1C2=O` (stereo not shown) [Compound 6h], in the data set with hepG2 cells (setting [3]), the “Cell Viability (100%), 20 μM, 48 h, hepG2” value is on record as 66.45%. For the same compound, the “Cell Viability (100%), 20 μM, 48 h, Huh7” value with Huh7 cells (setting [4]) amounted to 50.37%. In data set [2], the “Cell Viability (100%), 20 μM, 48 h, HRM” value is 93.73%.

(Values after PMC11052077, “Discovery of Dolutegravir Derivative against Liver Cancer via Inducing Autophagy and DNA Damage” (Molecules, 2024).)
